According to patent US7968096B2, “Methods and compositions for treating toxoplasma” (priority 2005, dated 2011):

Key:
Type in all cases: cell-based, Toxoplasma gondii
T. gondii bradyzoites = assay: In vitro transformation of encysted bradyzoites into tachyzoites (P21/SAG1 markers and Hsp90 localization by IFA)
Protocol: Released PK bradyzoites from brain cysts of infected mice were incubated with 100 nM GA or DMSO for 2 hours, washed, inoculated onto a confluent HFF monolayers, and grown under tachyzoite conditions. IFAs were performed at 4 and 24 hours post-inoculation. To identify mature bradyzoites, parasites were stained using a monoclonal anti-p21 antibody, and tachyzoites were stained using rabbit anti-SAG1. […] The y-axis depicts the number of parasites per/PV-cysts, and the x-axis depicts time in hours. […] The y-axis depicts the number of parasites per/PV-cysts, and the x-axis depicts time in hours. Parasites with cytoplasmic Hsp90 were treated with GA (Hsp90c-GA) or DMSO (Hsp90c-DMSO); parasites with cytoplasmic and nuclear Hsp90 were treated with GA (Hsp90c,n-GA) or DMSO (Hsp90n,c-DMSO). 100 PV-Cysts were counted at random in three independent experiments.
Cysts were isolated from brains of mice infected intraperitoneally 4 weeks before with PK or Me49 strain tachyzoites. Cysts were purified by isopycnic centrifugation on a percoll gradient and encysted bradyzoites were freed by trypsin digestion. In the case of GA experiments, free bradyzoites were incubated in culture media with GA […] or DMSO for 2 h, then parasites were pelleted and washed. One hundred thousand bradyzoites were inoculated onto 12 mm coverslips covered with a confluent monolayer of HFFs. Intracellular localization of Hsp90 was followed by IFA after 4 and 24 hours of infection using anti-Hsp90 serum (1:100). Monoclonal antibodies, specific to the tachyzoite surface protein SAG1 or to the bradyzoite specific protein P21 (mAb T84G10), were used to monitor stage conversion.
GA (InvivoGen, San Diego, Calif.) was dissolved in dimethyl sulfoxide (DMSO) at […]. The drug was diluted in normal culture media to the required concentrations prior to use. A range of concentrations from 1 nM to 5 μM were initially assayed to determine an effective concentration for subsequent experiments. DMSO was added in similar concentrations to control slides. For replication rate studies, the number of parasites per parasitophorous vacuole or cysts (PV-Cyst) was determined for at least 100 PV-Cyst per treatment (GA or DMSO) in replicate experiments. To measure the effect of GA on stage conversion, GA was added in bradyzoite induction experiments (as described above), slides were analyzed by IFA, and the number of P34 positive vacuoles was determined in both GA and DMSO treated cultures. Analysis of intracellular localization of Hsp90 was assessed in the same way but using rabbit anti-TgHsp90 serum. In the in vitro transformation of encysted bradyzoites into tachyzoites experiments, parasites were treated with GA (as described above) and then analyzed by IFA counting P21 and […] positive PV-Cysts in treated and control groups. For replication rate studies, the number of parasites per PV/cysts was determined for at least 100 PV-Cyst per treatment in replicate experiments.

T. gondii [1] = assay: Parasite replication rate under bradyzoite differentiation conditions (parasites per PV-cyst, IFA); conditions: 4 days, 100 nM GA
Protocol: FIG. 5 is a graph showing that geldanamycin A (GA) affects bradyzoite replication rate. PK strain (an avirulent derivative of the Me49 strain) and ΔUPRT strain (a strain with a stage-specific selectable marker) parasites were grown under bradyzoite differentiation conditions for 4 days in the presence of 100 nM of GA or DMSO. IFAs were carried out with rabbit anti-T. gondii Hsp90 serum. Fluorescent parasites were counted and the number of parasites per parasitophorous vacuole (PV)-cysts was graphed. One hundred PV-cysts were counted. Student t test was performed by Prism3™ program (Graphpad). *p 0.05, **p 0.01. The y-axis represents the number of parasites/PV-cysts.
(§1) RH UPRT knock-out parasites can be induced to differentiate into bradyzoites in low CO2, resulting in pyrimidine starvation. […] Bradyzoite induction under this method was assessed and followed by cyst wall detection using the Dolichos biflorus lectin (Boothroyd et al., (1997) Philos Trans R Soc Lond B Biol Sci 352, 1347-1354). […]
GA (InvivoGen, San Diego, Calif.) was dissolved in dimethyl sulfoxide (DMSO) at […]. […] For replication rate studies, the number of parasites per parasitophorous vacuole or cysts (PV-Cyst) was determined for at least 100 PV-Cyst per treatment (GA or DMSO) in replicate experiments. […] Analysis of intracellular localization of Hsp90 was assessed in the same way but using rabbit anti-TgHsp90 serum. […]

T. gondii [2] = assay: Tachyzoite to bradyzoite conversion (P34 marker and Hsp90 subcellular localization by IFA); conditions: RH ΔUPRT strain, bradyzoite conditions 4 days, 100 nM GA
Protocol: FIG. 6 is two graphs showing that GA blocks tachyzoite to bradyzoite conversion. Parasites were grown under bradyzoite differentiation conditions for 4 days in the presence of 100 nM of GA or DMSO. FIG. 6A is RH UPRT knock-out parasites, and FIG. 6B is PK parasites. The y-axes depict the number of parasites/PV cysts. Cytoplasmic (c) and nuclear (n) Hsp90 localization was determined by IFA with rabbit anti-T. gondii Hsp90 serum. Parasites were also stained with the bradyzoite-specific marker p34 and scored as P34 positive (p34+) or negative (p34−). The number of P34−/Hsp90c; P34−/Hsp90c,n; P34+/Hsp90c; and P34+/Hsp90c,n per 100 PV-Cysts was counted at random, in three independent experiments.
as §1, with “starvation. (Bohne et al., (eds) (1997) Stage-specific expression of a selectable marker in T. gondii permits selective inhibition of either tachyzoites or bradyzoites Vol. 88. Mol Biochem Parasitol; Bohne et al., (1997) Mol Biochem Parasitol 88, 115-126).” for “starvation.”

[3] = 24 hours, Me49 bradyzoites incubated 2 hours with GA, washed, tachyzoite conditions
[4] = GA treated bradyzoites, time point not stated

SMILES: COC1=C2C[C@@H](C)C[C@H](OC)[C@H](O)[C@@H](C)/C=C(\C)[C@H](OC(N)=O)[C@@H](OC)/C=C\C=C(/C)C(=O)NC(=CC1=O)C2=O [GA, geldanamycin A]
- P21 positive and SAG1 negative parasites (T. gondii bradyzoites; 4 hours post-infection, all parasites (GA and DMSO), Me49 bradyzoites incubated 2 hours): more than 90%
- parasites exhibiting Hsp90c (T. gondii bradyzoites; 24 hours post-infection): 100%
- SAG1 positive parasites (T. gondii bradyzoites; [3]): less than 5%
- parasites remaining P21 positive (T. gondii bradyzoites; [3]): more than 90%
- bradyzoites showing Hsp90c staining (T. gondii bradyzoites; [4]): 80%
- bradyzoites showing Hsp90n,c staining pattern (T. gondii bradyzoites; [4]): 20%
- reduction of level of invasion compared with DMSO treated parasites (T. gondii bradyzoites; bradyzoites treated with GA): 40-66%
- reduction of parasite growth compared to DMSO controls (T. gondii [1]; PK strain): ~3 fold
- reduction of parasite growth compared to DMSO controls (T. gondii [1]; RH strain): ~2 fold
- parasite vacuoles showing P34- and Hsp90c (tachyzoite phenotype) (T. gondii [2]): about 75%
